Experimental findings from patent publication US10105357B2, “Indication of antibiotic drugs for preparation of cancer inhibition pharmaceutical composition” (LAUNX BIOMEDICAL CO., LTD., priority 2014, dated 2018) are described below.

Experiment [1] concerns HI650 (Lung Adenocarcinoma). The experiment can be described thus: Cell viability analysis, lung cancer HI650. The class given is cell-based, human. The conditions noted are these: Homo sapiens.
For experiment [2], the system named is A549 (Lung Adenocarcinoma). The experiment can be described thus: Cell viability analysis, lung cancer A549. The class given is cell-based, human. The conditions noted are these: Homo sapiens.
Experiment [3] concerns AGS (Gastric Adenocarcinoma). The experiment can be described thus: Cell viability analysis, gastric cancer AGS. The class given is cell-based, human. The conditions noted are these: Homo sapiens.
The subject of experiment [4] is MKN-45 (Gastric Adenocarcinoma). The experiment can be described thus: Cell viability analysis, gastric cancer MKN-45. The experiment is classed as cell-based, human. The conditions noted are these: Homo sapiens.
Experiment [5] deals with HepG2 (Hepatocellular Carcinoma). The experiment can be described thus: Cell viability analysis, hepatic cancer HepG2. The conditions noted are these: Homo sapiens. The class given is cell-based, human.
For experiment [6], the system named is LoVo (Colorectal Adenocarcinoma). The experiment can be described thus: Cell viability analysis, colon cancer LoVo. The class given is cell-based, human. The following applies: Homo sapiens, LoVo.
The subject of experiment [7] is A375 (Amelanotic Melanoma). The experiment can be described thus: Cell viability analysis, skin cancer A375. The experiment is classed as cell-based, human. The conditions noted are these: Homo sapiens.
Experiment [8] concerns HeLa (Cervix Adenocarcinoma). The experiment can be described thus: Cell viability analysis, cervical cancer HeLa. The class given is cell-based, human. The following applies: Homo sapiens, HeLa.
In experiment [9] the test system is PC3 (p53−) (Prostate Adenocarcinoma). The experiment can be described thus: Cell viability analysis, prostate cancer PC3. The experiment is classed as cell-based, human. The following applies: Homo sapiens.
For experiment [10], the system named is TSGH-8301 (Urinary Bladder Carcinoma). The experiment can be described thus: Cell viability analysis, bladder cancer TSGH-8301. The experiment is classed as cell-based, human. The following applies: Homo sapiens.
Experiment [11] has as its system MCF7 (Mammary Gland, Adenocarcinoma). The experiment can be described thus: Cell viability analysis, breast cancer MCF7. The experiment is classed as cell-based, human. The following applies: Homo sapiens.
Experiment [12] concerns HL-60 (Acute Promyelocytic Leukemia). The experiment can be described thus: Cell viability analysis, leukemia HL-60. The following applies: Homo sapiens. The experiment is classed as cell-based, human.
Experiment [13] relates to HCT116 (p53+) (Colorectal Carcinoma). The experiment can be described thus: cells. The following applies: Homo sapiens, HCT-116, 72 h, read-out: cell viability (survival rate), HCT116.
Where [14] appears, read: NCI-H1650, 72 h, drug 10 μM, 72 hours, WST-1, OD450 nm, read-out: cell viability (survival rate), H1650.
[15] abbreviates: A549, 72 h, drug 10 μM, 72 hours, WST-1, OD450 nm, read-out: cell viability (survival rate), A549.
Where [16] appears, read: 72 h, drug 10 μM, 72 hours, WST-1, OD450 nm, read-out: cell viability (survival rate), AGS.
[17] abbreviates: MKN-45, 72 h, drug 10 μM, 72 hours, WST-1, OD450 nm, read-out: cell viability (survival rate), MKN-45.
Setting [18] is: HepG2, 72 h, drug 10 μM, 72 hours, WST-1, OD450 nm, read-out: cell viability (survival rate), HepG2.
Setting [19] is: 72 h, read-out: cell viability (survival rate), LoVo, drug 10 μM, 72 hours, WST-1, OD450 nm.
Setting [20] is: A-375, 72 h, drug 10 μM, 72 hours, WST-1, OD450 nm, read-out: cell viability (survival rate), A375.
Where [21] appears, read: 72 h, drug 10 μM, 72 hours, WST-1, OD450 nm, read-out: cell viability (survival rate), HeLa.
Setting [22] is: 72 h, drug 10 μM, 72 hours, WST-1, OD450 nm, read-out: cell viability (survival rate), PC3.
[23] abbreviates: 72 h, drug 10 μM, 72 hours, WST-1, OD450 nm, read-out: cell viability (survival rate), TSGH.
Where [24] appears, read: MCF7, 72 h, drug 10 μM, 72 hours, WST-1, OD450 nm, read-out: cell viability (survival rate), MCF7.
Where [25] appears, read: HL-60, 72 h, drug 10 μM, 72 hours, WST-1, OD450 nm, read-out: cell viability (survival rate), HL-60.
Setting [26] is: NCI-H1650, 72 h, read-out: cell viability (survival rate), H1650.
Where [27] appears, read: A549, 72 h, read-out: cell viability (survival rate), A549.
Where [28] appears, read: 72 h, read-out: cell viability (survival rate), AGS.
The mark [29] stands for this setting: MKN-45, 72 h, read-out: cell viability (survival rate), MKN-45.
Setting [30] is: HepG2, 72 h, read-out: cell viability (survival rate), HepG2.
Where [31] appears, read: 72 h, read-out: cell viability (survival rate), LoVo.
Setting [32] is: A-375, 72 h, read-out: cell viability (survival rate), A375.
The mark [33] stands for this setting: 72 h, read-out: cell viability (survival rate), HeLa.
Setting [34] is: 72 h, read-out: cell viability (survival rate), PC3.
Setting [35] is: 72 h, read-out: cell viability (survival rate), TSGH.
[36] abbreviates: MCF7, 72 h, read-out: cell viability (survival rate), MCF7.
The mark [37] stands for this setting: HL-60, 72 h, read-out: cell viability (survival rate), HL-60.
The mark [38] stands for this setting: NCI-H1650, 72 h, read-out: cell viability (survival rate), H1650, drug 10 μM, 72 hours, WST-1, OD450 nm.
Setting [39] is: A549, 72 h, read-out: cell viability (survival rate), A549, drug 10 μM, 72 hours, WST-1, OD450 nm.
Setting [40] is: 72 h, read-out: cell viability (survival rate), AGS, drug 10 μM, 72 hours, WST-1, OD450 nm.
Setting [41] is: MKN-45, 72 h, read-out: cell viability (survival rate), MKN-45, drug 10 μM, 72 hours, WST-1, OD450 nm.
[42] abbreviates: HepG2, 72 h, read-out: cell viability (survival rate), HepG2, drug 10 μM, 72 hours, WST-1, OD450 nm.
The mark [43] stands for this setting: A-375, 72 h, read-out: cell viability (survival rate), A375, drug 10 μM, 72 hours, WST-1, OD450 nm.
Where [44] appears, read: 72 h, read-out: cell viability (survival rate), HeLa, drug 10 μM, 72 hours, WST-1, OD450 nm.
The mark [45] stands for this setting: 72 h, read-out: cell viability (survival rate), PC3, drug 10 μM, 72 hours, WST-1, OD450 nm.
Setting [46] is: 72 h, read-out: cell viability (survival rate), TSGH, drug 10 μM, 72 hours, WST-1, OD450 nm.
The mark [47] stands for this setting: MCF7, 72 h, read-out: cell viability (survival rate), MCF7, drug 10 μM, 72 hours, WST-1, OD450 nm.
Where [48] appears, read: HL-60, 72 h, read-out: cell viability (survival rate), HL-60, drug 10 μM, 72 hours, WST-1, OD450 nm.

Molecules are shown by their SMILES. Read-outs that look alike come from different tables or passages of the source.

The viability is a read-out of living cells in per cent, often relative to untreated cells. With `CCc1oc2ccccc2c1C(=O)c1cc(Br)c(O)c(Br)c1` [Benzbromarone], the viability at 10 µM in experiment [1] (setting [14]) amounted to 75.3%; in experiment [2] (setting [15]), 51.5%; in [3] (setting [16]) it was 80.1%; in experiment [4] (setting [17]), 86.2%; in experiment [5] (setting [18]) it was 103%; in experiment [6] (setting [19]) it was 105%. The viability at 10 µM in experiment [7] (setting [20]) came to 99.2%; in [8] (setting [21]), 104%; in experiment [9] (setting [22]) it was 80.9%; in experiment [10] (setting [23]), 99.9%; in experiment [11] (setting [24]), 52.8%; in experiment [12] (setting [25]), 85.5%. In addition, in experiment [13], the viability at 10 µM was found to be 128%.
`O=C(O)c1ccccc1` [Benzoic acid]: the viability at 10 µM in experiment [1] (NCI-H1650, drug 10 μM, 72 hours, WST-1, OD450 nm, read-out: cell viability (survival rate), H1650) worked out at 57.2%; in experiment [2] (A549, drug 10 μM, 72 hours, WST-1, OD450 nm, read-out: cell viability (survival rate), A549), 36.7%; in experiment [3] (drug 10 μM, 72 hours, WST-1, OD450 nm, read-out: cell viability (survival rate), AGS), 53.1%; in [4] (MKN-45, drug 10 μM, 72 hours, WST-1, OD450 nm, read-out: cell viability (survival rate), MKN-45), 43.4%; in [5] (HepG2, drug 10 μM, 72 hours, WST-1, OD450 nm, read-out: cell viability (survival rate), HepG2) it was 79.1%; in [6] (drug 10 μM, 72 hours, WST-1, OD450 nm, read-out: cell viability (survival rate), LoVo), 60.5%. The viability at 10 µM in [7] (A-375, drug 10 μM, 72 hours, WST-1, OD450 nm, read-out: cell viability (survival rate), A375) was determined as 37%; in [8] (drug 10 μM, 72 hours, WST-1, OD450 nm, read-out: cell viability (survival rate), HeLa), 59.6%; in [9] (drug 10 μM, 72 hours, WST-1, OD450 nm, read-out: cell viability (survival rate), PC3) it was 36.8%; in experiment [10] (drug 10 μM, 72 hours, WST-1, OD450 nm, read-out: cell viability (survival rate), TSGH), 39.5%; in [11] (MCF7, drug 10 μM, 72 hours, WST-1, OD450 nm, read-out: cell viability (survival rate), MCF7), 31.4%; in experiment [12] (HL-60, drug 10 μM, 72 hours, WST-1, OD450 nm, read-out: cell viability (survival rate), HL-60), 111%. For the same compound, the viability at 10 µM in experiment [13] was 41.9%.
In the case of `COC(=O)N/N=C/c1c[n+]([O-])c2ccccc2[n+]1[O-]` [Carbadox], the viability at 10 µM in [1] (setting [14]) turned out to be 56.9%; in [2] (setting [15]), 24.8%; in experiment [3] (setting [16]) it was 51.9%; in experiment [4] (setting [17]), 104%; in experiment [5] (setting [18]), 88.7%; in experiment [6] (setting [19]) it was 54.4%. The viability at 10 µM in [7] (setting [20]) amounted to 52.4%; in experiment [8] (setting [21]) it was 60%; in experiment [9] (setting [22]) it was 52.5%; in experiment [10] (setting [23]) it was 67.9%; in experiment [11] (setting [24]), 34.6%; in experiment [12] (setting [25]), 87%. Further, the viability at 10 µM in experiment [13] is 72.8%.
Regarding `CCCCCCCCCCCCCCCC[n+]1ccccc1` [Cetylpyridinium Chloride], the viability at 10 µM is 48.7% in experiment [1] (setting [26]); 29.2% in experiment [2] (setting [27]); 33.4% in experiment [3] (setting [28]); 47.4% in [4] (setting [29]); 60.9% in [5] (setting [30]); 50.7% in [6] (setting [31]). The viability at 10 µM in experiment [7] (setting [32]) is 35.6%; in experiment [8] (setting [33]), 37.1%; in [9] (setting [34]), 37.1%; in [10] (setting [35]), 37.2%; in experiment [11] (setting [36]), 40.9%; in experiment [12] (setting [37]) it was 30.8%. Also, in [13], the viability at 10 µM worked out at 33.6%.
Regarding `C[N+](C)(C)CCO.[Cl-]` [Choline Chloride], the viability at 10 µM was 90.2% in experiment [1] (setting [26]); 96% in [2] (setting [27]); 97.1% in experiment [3] (setting [28]); 99.3% in [4] (setting [29]); 103% in experiment [5] (setting [30]); 76.7% in experiment [6] (setting [31]). In addition, the viability at 10 µM in experiment [7] (setting [32]) stood at 132%; in experiment [8] (setting [33]), 103%; in experiment [9] (setting [34]), 106%; in experiment [10] (setting [35]) it was 129%; in experiment [11] (setting [36]), 108%; in experiment [12] (setting [37]) it was 91.1%. Moreover, the viability at 10 µM in experiment [13] was 104%.
Consider `C[C@@H]1CCC[C@H](C)N1NC(=O)c1ccc(Cl)c(S(N)(=O)=O)c1` [Clopamide], for which the viability at 10 µM stood at 54% in [1] (setting [38]); 32.4% in [2] (setting [39]); 50.3% in experiment [3] (setting [40]); 89.4% in [4] (setting [41]); 92.8% in experiment [5] (setting [42]); 54.3% in [6] (setting [19]). The viability at 10 µM in experiment [7] (setting [43]) is 63.1%; in [8] (setting [44]), 87.1%; in experiment [9] (setting [45]) it was 40.3%; in [10] (setting [46]), 59%; in [11] (setting [47]), 33.4%; in experiment [12] (setting [48]), 102%. The viability at 10 µM in experiment [13] came out at 102%.
In the case of `COc1cc(/C=C/C(=O)CC(=O)/C=C/c2ccc(O)c(OC)c2)ccc1O` [Curcumin], the viability at 10 µM in experiment [1] (setting [38]) stood at 74.7%; in [2] (setting [39]), 105%; in experiment [3] (setting [40]), 72.2%; in [4] (setting [41]) it was 46.4%; in experiment [5] (setting [42]) it was 98.3%; in [6] (setting [19]), 80%. For the same compound, the viability at 10 µM in [7] (setting [43]) was 104%; in experiment [8] (setting [44]) it was 66.2%; in experiment [9] (setting [45]), 77.9%; in experiment [10] (setting [46]), 95.4%; in [11] (setting [47]) it was 61.8%; in experiment [12] (setting [48]), 111%. In experiment [13], the viability at 10 µM worked out at 93.6%.
